Assay results as given in patent US10759751B2, “Substituted spirocyclohexanes as muscarinic M1 receptor and/or M4 receptor agonists” (Heptares Therapeutics Limited, priority 2016, dated 2020).

Tests used:
Assay type in all cases: cell-based
[1] = target: T1, human muscarinic M4 receptor (Homo sapiens, UniProt P08173); test: Alphascreen Surefire phospho-ERK1/2 functional assay, M4; conditions: for EC50 / M4 % Emax cf. ACh: CHO cells stably expressing human M4; for EC50: phospho-ERK1/2, read-out: pEC50 M4 (converted); for Emax: CHO, read-out: M4 % Emax cf. ACh, CHO cells stably expressing human M4; for Emax / M4 % Emax cf. ACh: Emax relative to ACh
T1 construct: expressed in transfected cells
T1 sequence (P08173 1-479): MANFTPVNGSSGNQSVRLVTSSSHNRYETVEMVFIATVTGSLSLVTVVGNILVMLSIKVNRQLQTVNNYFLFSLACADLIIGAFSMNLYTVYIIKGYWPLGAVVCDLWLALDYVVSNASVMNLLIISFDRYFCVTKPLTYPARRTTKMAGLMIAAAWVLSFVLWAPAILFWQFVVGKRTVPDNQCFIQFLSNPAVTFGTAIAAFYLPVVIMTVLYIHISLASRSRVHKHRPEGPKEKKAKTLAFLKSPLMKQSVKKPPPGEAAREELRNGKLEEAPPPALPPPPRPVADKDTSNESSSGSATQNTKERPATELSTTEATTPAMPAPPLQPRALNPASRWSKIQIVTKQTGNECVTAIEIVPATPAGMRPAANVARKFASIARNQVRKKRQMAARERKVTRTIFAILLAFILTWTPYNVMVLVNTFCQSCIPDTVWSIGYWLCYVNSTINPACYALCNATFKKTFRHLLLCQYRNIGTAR
Protocol: (§1) Functional assays were performed using the Alphascreen Surefire phospho-ERK1/2 assay (Crouch & Osmond, Comb. Chem. High Throughput Screen, 2008). ERK1/2 phosphorylation is a downstream consequence of both Gq/11 and Gi/o protein coupled receptor activation, making it highly suitable for the assessment of M1, M3 (Gq/11 coupled) and M2, M4 receptors (Gi/o coupled), rather than using different assay formats for different receptor subtypes. CHO cells stably expressing the human muscarinic M1, M2, M3 or M4 receptor were plated (25K/well) onto 96-well tissue culture plates in MEM-alpha+10% dialysed FBS. Once adhered, cells were serum-starved overnight. Agonist stimulation was performed by the addition of 5 μL agonist to the cells for 5 min (37° C.). Media was removed and 50 μL of lysis buffer added. After 15 min, a 4 μL sample was transferred to 384-well plate and 7 μL of detection mixture added. Plates were incubated for 2 h with gentle agitation in the dark and then read on a PHERAstar plate reader.
(§2) pEC50 and Emax figures were calculated from the resulting data for each receptor subtype.

[2] = target: T2, human muscarinic M3 receptor (Homo sapiens, UniProt P20309); test: Alphascreen Surefire phospho-ERK1/2 functional assay, M3; conditions: for EC50: phospho-ERK1/2, read-out: pEC50 M3 (converted); for Emax: CHO, read-out: M3 % Emax cf. ACh
T2 construct: expressed in transfected cells
Protocol: as §1, §2

[3] = target: T3, human muscarinic M1 receptor (Homo sapiens, UniProt P11229); test: Alphascreen Surefire phospho-ERK1/2 functional assay, M1; conditions: for EC50 / M1 % Emax cf. ACh: CHO cells stably expressing human M1; for EC50: phospho-ERK1/2, read-out: pEC50 M1 (converted); for Emax: CHO, read-out: M1 % Emax cf. ACh, CHO cells stably expressing human M1; for Emax / M1 % Emax cf. ACh: Emax relative to ACh
T3 sequence (P11229 1-460): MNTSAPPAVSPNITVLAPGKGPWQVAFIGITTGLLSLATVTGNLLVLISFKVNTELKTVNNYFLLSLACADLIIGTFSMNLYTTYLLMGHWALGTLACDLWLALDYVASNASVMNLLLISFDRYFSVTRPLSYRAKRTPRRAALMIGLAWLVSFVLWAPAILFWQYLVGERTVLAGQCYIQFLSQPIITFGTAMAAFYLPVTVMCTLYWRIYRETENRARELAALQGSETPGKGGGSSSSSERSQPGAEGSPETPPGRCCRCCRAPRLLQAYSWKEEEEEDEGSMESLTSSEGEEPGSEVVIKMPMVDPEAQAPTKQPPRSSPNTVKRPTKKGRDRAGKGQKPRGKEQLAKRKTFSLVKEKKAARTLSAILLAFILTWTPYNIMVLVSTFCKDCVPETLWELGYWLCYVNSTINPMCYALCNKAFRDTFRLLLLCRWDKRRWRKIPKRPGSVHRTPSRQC
Protocol: as §1, §2

[4] = target: T4, human muscarinic M2 receptor (Homo sapiens, UniProt P08172); test: Alphascreen Surefire phospho-ERK1/2 functional assay, M2; conditions: for EC50: CHO cells stably expressing human M2, phospho-ERK1/2, read-out: pEC50 M2 (converted); for Emax: CHO, read-out: M2 % Emax cf. ACh
T4 sequence (P08172 1-466): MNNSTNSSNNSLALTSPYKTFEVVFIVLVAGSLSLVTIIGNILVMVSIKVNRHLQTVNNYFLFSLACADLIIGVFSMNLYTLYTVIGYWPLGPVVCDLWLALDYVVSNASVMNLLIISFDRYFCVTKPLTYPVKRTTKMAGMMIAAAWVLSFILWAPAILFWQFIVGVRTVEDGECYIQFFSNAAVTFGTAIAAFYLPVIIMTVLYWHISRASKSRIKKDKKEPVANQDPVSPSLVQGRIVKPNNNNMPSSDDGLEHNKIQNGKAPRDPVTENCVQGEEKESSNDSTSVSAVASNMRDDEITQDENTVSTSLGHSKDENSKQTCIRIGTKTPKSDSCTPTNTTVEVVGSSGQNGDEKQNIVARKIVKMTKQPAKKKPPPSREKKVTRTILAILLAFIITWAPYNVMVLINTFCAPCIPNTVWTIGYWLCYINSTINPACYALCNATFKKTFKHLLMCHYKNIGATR
Protocol: as §1, §2

[5] = CHO cells stably expressing human M3

T2 sequence (P20309 whole entry): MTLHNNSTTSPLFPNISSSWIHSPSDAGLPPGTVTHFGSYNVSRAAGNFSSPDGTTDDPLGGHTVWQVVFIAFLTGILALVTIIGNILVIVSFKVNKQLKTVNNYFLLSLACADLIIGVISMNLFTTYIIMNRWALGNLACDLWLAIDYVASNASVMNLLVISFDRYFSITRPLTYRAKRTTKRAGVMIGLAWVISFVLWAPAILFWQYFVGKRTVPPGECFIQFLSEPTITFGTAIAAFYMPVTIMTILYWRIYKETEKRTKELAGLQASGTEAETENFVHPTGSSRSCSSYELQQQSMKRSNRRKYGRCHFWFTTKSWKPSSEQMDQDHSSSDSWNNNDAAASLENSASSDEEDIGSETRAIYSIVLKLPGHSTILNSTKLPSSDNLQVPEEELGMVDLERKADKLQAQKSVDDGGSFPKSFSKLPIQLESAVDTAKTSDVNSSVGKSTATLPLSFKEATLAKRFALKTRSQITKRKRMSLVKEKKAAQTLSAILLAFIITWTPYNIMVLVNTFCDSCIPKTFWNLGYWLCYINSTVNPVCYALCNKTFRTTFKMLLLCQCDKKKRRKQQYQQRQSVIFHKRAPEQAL

| Structure (SMILES) | EC50 [1] [nM] | Emax [1] [%] | EC50 [2, 5] [nM] | Emax [2] [%] | EC50 [3] [nM] | Emax [3] [%] | EC50 [4] [nM] | Emax [4] [%] | M4 % Emax cf. ACh [1] [%] | M1 % Emax cf. ACh [3] [%] | M3 % Emax cf. ACh ([2]; CHO cells stably expressing human M3, Emax relative to ACh) [%] |
| --- | --- | --- | --- | --- | --- | --- | --- | --- | --- | --- | --- |
| CCOC(=O)N[C@H]1CCN(C2CCC(C#N)(c3ccccc3)CC2)C1 (single isomer, unassigned) [1-1 Isomer 2] | > 20000 | 18 | > 20000 | 18 | 51.3 | 117 | > 20000 | 3 | – | – | – |
| CCOC(=O)N[C@H]1CCN(C2CCC3(CC2)C(=O)Nc2cc(C)ccc23)C1 (single isomer, unassigned) [2-4 isomer 1] | > 15800 | 11 | > 15800 | 11 | 66.1 | 65 | > 15800 | 3 | – | – | – |
| CCOC(=O)N[C@H]1CCN(C2CCC(C#N)(c3cccc(Cl)c3)CC2)C1 (single isomer, unassigned) [1-10 Isomer 2] | > 20000 | 24 | > 20000 | 9 | 28.2 | 106 | > 20000 | 6 | – | – | – |
| Cc1ccc(C2(C#N)CCC(N3CCC4(CC(c5nc(C)no5)C4)C3)CC2)nc1 (single isomer, unassigned) [21-5 Isomer 1] | 1070 | 55 | – | – | > 20000 | – | – | – | – | 18 | – |
| CCOC(=O)N1CCCN(C2CCC3(CC2)C(=O)Nc2ccc(C#N)cc23)CC1 (single isomer, unassigned) [4-14 isomer 1] | > 20000 | 24 | – | – | 977 | 76 | – | – | – | – | – |
| CC(=O)OCC[N+](C)(C)C [ACh] | – | – | – | – | – | – | – | – | 110 | – | 115 |
| CCOC(=O)N[C@H]1CCN(C2CCC3(CC2)C(=O)Nc2ccc(F)cc23)C1 (single isomer, unassigned) [2-8 isomer 1] | > 20000 | 10 | – | – | 93.3 | 59 | – | – | – | – | – |
| COc1ccc(C2(C#N)CCC(N3CCC4(CC(c5nc(C)no5)C4)C3)CC2)nc1 (single isomer, unassigned) [21-4 Isomer 4] | 309 | 68 | – | – | 2140 | 47 | – | – | – | – | – |
| CCOC(=O)N1CCCN(C2CCC3(CC2)C(=O)Nc2cc(C#N)ccc23)CC1 (single isomer, unassigned) [4-13 isomer 2] | 347 | 39 | – | – | 955 | 38 | – | – | – | – | – |
| C/C=C/C(=O)N1CCCN(C2CCC3(CC2)C(=O)Nc2ccccc23)CC1 (single isomer, unassigned) [4-4 isomer 2] | > 20000 | 12 | – | – | 257 | 48 | – | – | – | – | – |

Next, values leading:

| EC50 [1] [nM] | Emax [1] [%] | EC50 [2, 5] [nM] | Emax [2] [%] | EC50 [3] [nM] | Emax [3] [%] | EC50 [4] [nM] | Emax [4] [%] | M4 % Emax cf. ACh [1] [%] | M1 % Emax cf. ACh [3] [%] | M3 % Emax cf. ACh ([2]; CHO cells stably expressing human M3, Emax relative to ACh) [%] | Structure (SMILES) |
| --- | --- | --- | --- | --- | --- | --- | --- | --- | --- | --- | --- |
| 105 | 62 | > 20000 | 23 | 219 | 89 | > 20000 | 16 | – | – | – | O=C1Nc2ccccc2C12CCC(N[C@@H]1CC[C@H](c3nc(C(F)(F)F)no3)C1)CC2 (single isomer, unassigned) [24-1 Isomer 1] |
| 251 | 78 | > 20000 | 8 | 347 | 113 | – | – | – | – | – | Cc1noc(C2CC2CNC2CCC3(CC2)C(=O)Nc2ccccc23)n1 (single isomer, unassigned) [23-1 Isomer 1] |
| > 20000 | – | – | – | 224 | – | – | – | 14 | 51 | – | COc1ccc2c(c1)C1(CCC(N3CCC4(CC(c5nc(C)no5)C4)C3)CC1)C(=O)N2 (single isomer, unassigned) [26-2 Isomer 3] |
| 832 | 45 | – | – | 977 | 59 | – | – | – | – | – | N#CC1(c2ccc(F)cn2)CCC(N[C@@H]2CC[C@H](c3nc(C(F)(F)F)no3)C2)CC1 (single isomer, unassigned) [28-1 Isomer 2] |
| 158 | 26 | – | – | 257 | – | – | – | – | 112 | – | CCOC(=O)NC1CCN(C2CCC3(CC2)C(=O)Nc2ccccc23)CC1 (single isomer, unassigned) [7-1 isomer 1] |
